Assay: Water solubility of selodenoson
Type: physicochemical

Compound: CCNC(=O)[C@H]1O[C@@H](n2cnc3c(NC4CCCC4)ncnc32)[C@H](O)[C@@H]1O [selodenoson, N^6-cyclopentyl-5′-(N-ethyl)carboxamidoadenosine]
- solubility in water (water): soluble in water
- solubility in water under acidic conditions (water under acidic conditions): highly soluble in water under acidic conditions

— patent US20050118262A1, “Controlled release formulation” (priority 2003, published 2005)
